Assay results: patent US20250230193A1, “CYCLIC COMPOUND HAVING SELECTIVE KRAS INHIBITORY EFFECT ON HRAS AND NRAS” (CHUGAI SEIYAKU KABUSHIKI KAISHA, priority 2022, published 2025)
Where a SMILES comes first, the peptide text is derived from it. Bridges are numbered along the chain shown (N, C = ends). [ ]: non-standard residue; d: D form. hPhe(3,5-F2-4-CF3) = N[C@@H](CCc1cc(F)c(C(F)(F)F)c(F)c1)C(=O)O; NPrPhe(4-CF3) = CCCN[C@@H](Cc1ccc(C(F)(F)F)cc1)C(=O)O; NMeGly(cPent) = CN[C@H](C(=O)O)C1CCCC1; NMeD = CN[C@@H](CC(=O)O)C(=O)O; NMeL = CN[C@@H](CC(C)C)C(=O)O; Iva = CC[C@](C)(N)C(=O)O; Sar = CNCC(=O)O

Columns and labels:
[1] = molecular target: GDP-bound HRAS wild-type protein (Homo sapiens, UniProt P01112); test: Binding to HRAS by surface plasmon resonance (SPR), Single Cycle Kinetics; conditions: for HRAS/KRAS (ratio of KD value with respect to HRAS to KD value with respect to KRAS): GDP-bound HRAS wild-type vs GDP-bound KRAS wild-type
[2] = molecular target: GDP-bound NRAS wild-type protein (Homo sapiens, UniProt P01111); test: Binding to NRAS by surface plasmon resonance (SPR), Single Cycle Kinetics; conditions: for NRAS/KRAS (ratio of KD value with respect to NRAS to KD value with respect to KRAS): GDP-bound NRAS wild-type vs GDP-bound KRAS wild-type
Chain of GDP-bound NRAS wild-type protein (P01111 whole entry): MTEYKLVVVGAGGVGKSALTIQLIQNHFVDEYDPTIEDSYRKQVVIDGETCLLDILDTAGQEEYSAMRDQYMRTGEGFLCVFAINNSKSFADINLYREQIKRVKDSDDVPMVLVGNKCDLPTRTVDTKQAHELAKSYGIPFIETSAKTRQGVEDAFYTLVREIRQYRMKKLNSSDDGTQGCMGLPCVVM

Chain of GDP-bound HRAS wild-type protein (P01112 whole entry): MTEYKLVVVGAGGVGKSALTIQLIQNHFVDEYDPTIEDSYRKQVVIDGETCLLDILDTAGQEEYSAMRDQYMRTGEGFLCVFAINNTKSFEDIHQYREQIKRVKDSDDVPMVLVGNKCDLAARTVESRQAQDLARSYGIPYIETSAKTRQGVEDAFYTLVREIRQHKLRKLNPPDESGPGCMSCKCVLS

SMILES | HRAS/KRAS (ratio of KD value with respect to HRAS to KD value with respect to KRAS) ([1]; SPR) | NRAS/KRAS (ratio of KD value with respect to NRAS to KD value with respect to KRAS) ([2]; SPR) | HRAS/KRAS (ratio of KD value with respect to GDP-bound HRAS wild-type protein to KD value with respect to KRAS) ([1]; SPR) | NRAS/KRAS (ratio of KD value with respect to GDP-bound NRAS wild-type protein to KD value with respect to KRAS) ([2]; SPR) | also measured
CCO[C@@H]1C[C@H]2C(=O)NC3(CCC3)C(=O)N(C)[C@@H](C3CCCC3)C(=O)N(C)[C@H](C(=O)N3CCOCC3)CC(=O)N(C)[C@@H](Cc3ccccc3C#N)C(=O)N[C@@H]([C@@H](C)CC)C(=O)N(C)CC(=O)N(C)[C@H]3CCCCCN(C3=O)[C@@H](Cc3ccc(F)cc3)C(=O)N(C)CC(=O)N[C@@H](CCc3cc(F)c(C(F)(F)F)c(F)c3)C(=O)N2C1 [PP1185] |  |  |  |  | HRAS/KRAS (ratio of KD value with respect to HRAS to KD value with respect to KRAS) ([1]; KD ratio, SPR): B (a compound having 3 or more and less than 10 is denoted as B); NRAS/KRAS (ratio of KD value with respect to NRAS to KD value with respect to KRAS) ([2]; KD ratio, SPR): B (a compound having 3 or more and less than 10 is denoted as B)
CCO[C@@H]1C[C@H]2C(=O)NC3(CC(C)(C)C3)C(=O)N(C)[C@@H](C(CC)CC)C(=O)N(C)[C@H](C(=O)N(C)C)CC(=O)N(C)[C@@H](C(C)C)C(=O)N[C@@H]([C@@H](C)CC)C(=O)N(C)CC(=O)N(C)[C@H]3C/C=C\CCN(C3=O)[C@@H](Cc3ccc(C(F)(F)F)cc3)C(=O)N(C)CC(=O)N[C@@H](CCc3ccc(C(F)(F)F)c(OC)c3)C(=O)N2C1 [PP2165] | A (a compound having 10 or more and less than 20 is denoted as A) | A (a compound having 10 or more and less than 20 is denoted as A) |  |  | 
CCCN1C(=O)CN(C)C(=O)CN(C)C(=O)[C@H]([C@@H](C)CC)NC(=O)[C@H](CC(C)C)N(C)C(=O)C[C@@H](C(=O)N(C)C)N(C)C(=O)[C@H](C2CCCC2)N(C)C(=O)[C@](C)(CC)NC(=O)[C@@H]2CCCN2C(=O)[C@H](CCc2cc(F)c(C(F)(F)F)c(F)c2)NC(=O)CN(C)C(=O)[C@@H]1Cc1ccc(C(F)(F)F)cc1 [PP0805] ([NMeL]I[Sar][Sar][NPrPhe(4-CF3)][Sar][hPhe(3,5-F2-4-CF3)]P[Iva][NMeGly(cPent)][NMeD]-NMe2; lactam N-11) |  |  | C (A compound having a KD ratio of 0.1 or more and less than 3 is denoted as C) | B (a compound having 3 or more and less than 10 is denoted as B) | 
CCC(CC)[C@H]1C(=O)N(C)[C@H](C(=O)N(C)C)CC(=O)N(C)[C@@H](COC)C(=O)N[C@@H]([C@@H](C)CC)C(=O)N2CCC[C@H]2C(=O)N(C)[C@H]2C/C=C\CCN(C2=O)[C@@H](Cc2ccc(C(F)(F)F)cc2)C(=O)N(C)CC(=O)N[C@@H](CCc2ccc(Cl)c(Cl)c2)C(=O)N2C[C@H](OC3CCCC3)C[C@H]2C(=O)NC2(CC(C)(C)C2)C(=O)N1C [PP2651] |  |  |  |  | HRAS/KRAS (ratio of KD value with respect to GDP-bound HRAS wild-type protein to KD value with respect to KRAS) ([1]; class symbols): A (a compound having 10 or more and less than 20 is denoted as A); NRAS/KRAS (ratio of KD value with respect to GDP-bound NRAS wild-type protein to KD value with respect to KRAS) ([2]; class symbols): AA (a compound having 20 or more is denoted as AA)
CC[C@H](C)[C@@H]1NC(=O)[C@H](C(C)C)N(C)C(=O)C[C@@H](C(=O)N(C)CC)N(C)C(=O)[C@H](C2CCCC2)N(C)C(=O)C2(CCC2)NC(=O)[C@@H]2C[C@H](C)CN2C(=O)[C@H](CCc2ccc(C(F)(F)F)c(OC)c2)NC(=O)CN(C)C(=O)[C@H](Cc2ccc(C(F)(F)F)cc2)N2CC/C=C\C[C@@H](C2=O)N(C)C(=O)CN(C)C1=O [PP2065] | B (a compound having 3 or more and less than 10 is denoted as B) | A (a compound having 10 or more and less than 20 is denoted as A) |  |  | 
CC[C@H](C)[C@@H]1NC(=O)[C@H](CC(C)C)N(C)C(=O)C[C@@H](C(=O)N2CCOCC2)N(C)C(=O)[C@H](C2CCCC2)N(C)C(=O)C2(CCC2)NC(=O)[C@@H]2CCCN2C(=O)[C@H](CCc2cc(F)c(C(F)(F)F)c(F)c2)NC(=O)CN(C)C(=O)[C@H](Cc2ccc(C(F)(F)F)cc2)N2CCCC[C@@H](C2=O)N(C)C(=O)CN(C)C1=O [PP0560] |  |  | B (a compound having 3 or more and less than 10 is denoted as B) | B (a compound having 3 or more and less than 10 is denoted as B) | 
CC[C@H](C)[C@@H]1NC(=O)[C@H](CC(C)C)N(C)C(=O)C[C@@H](C(=O)N2CCOCC2)N(C)C(=O)[C@H](C2CCCC2)N(C)C(=O)C2(CC(F)(F)C2)NC(=O)[C@@H]2CCCN2C(=O)[C@H](CCc2cc(F)c(C(F)(F)F)c(F)c2)NC(=O)CN(C)C(=O)[C@H](Cc2ccc(C(F)(F)F)cc2)N2CCCC[C@@H](C2=O)N(C)C(=O)CN(C)C1=O [PP0562] |  |  | B (a compound having 3 or more and less than 10 is denoted as B) | B (a compound having 3 or more and less than 10 is denoted as B) | 
CCCN1CC(=O)N(C)[C@H]2C/C=C\CCN(C2=O)[C@@H](Cc2ccc(C)cc2)C(=O)N(C)CC(=O)N[C@@H](CCc2ccc(C(F)(F)F)c(OC)c2)C(=O)N2C[C@H](OCC)C[C@H]2C(=O)NC2(CC(C)(C)C2)C(=O)N(C)[C@@H](C2CCCC2)C(=O)N(C)[C@H](C(=O)N(C)C)CC(=O)N(C)[C@@H](CC)C(=O)N[C@@H]([C@@H](C)CC)C1=O [PP2096] | A (a compound having 10 or more and less than 20 is denoted as A) | A (a compound having 10 or more and less than 20 is denoted as A) |  |  | 
